Columns and labels:
[1] = target: T1, Human recombinant integrin αvβ1 (Homo sapiens, UniProt P05556+P06756); assay: Thermal shift assay (differential scanning fluorimetry), αvβ1; assay type: binding; conditions: αvβ1, 20 μM Compound A
T1 construct: purchased R&D Systems
Method: Differential scanning fluorimetry was performed on a LightCycler 480 II, real-time PCR instrument (Roche Diagnostics). Human recombinant integrins from R&D Systems (αvβ1, αvβ3 and α5β1) were reconstituted at a concentration of […] in assay buffer (20 mM HEPES, pH=7.3, 100 mM NaCl, 1 mM MgCl2, 1 mM MnCl2) and diluted in assay buffer with Sypro orange (SIGMA) to a final concentration of 400 nM integrin and 5× Sypro orange. A volume of 4.9 μL of this mixture of protein and dye was transferred to a 384-well plate and 100 nL of DMSO or Compound A, dissolved in DMSO, were added using an Echo 555 instrument (Labcyte). The final concentration of Compound A in the assay was 20 μM. After mixing, the assay plate was sealed, spun at 1,000×g for two minutes, and subsequently heated from 25 to 99° C. over the course of 31 min in the LightCycler 480 II instrument. Fluorescence intensity was measured using excitation/emission wavelengths of 465 and 580 nm, respectively. Changes in protein thermal stability (ΔTm) upon compound binding were analyzed by using LightCycler 480 (software provided by the manufacturer).

human podocytes [2] = assay: Oris cell migration assay, PAN-induced podocyte motility, vitronectin coated plate; assay type: cell-based; conditions: 48 h; for % migrated cells vs control cells: VN plate
Method: (§1) The effects of Compound A on podocyte motility were evaluated using Oris cell migration assay kit in 96-well plates (coated with either vitronectin or fibronectin). The Oris™ Cell Migration Assay is designed with a unique cell seeding stopper or biocompatible gel, detection mask, and stopper tool. These unique plate designs generate highly reproducible results using a microscope, digital imaging system. 7 to 10-day differentiated human podocytes (100 ul of 50,000 cells/ml) were seeded in each well of the ORIS plate. After sitting at room temperature for about 15 minutes, the plate was placed into 37° C. incubator and podocytes were incubated with complete podocyte medium for 24 h. Stoppers from each well (keeping stoppers in 4 wells which were served as time zero control) were carefully removed, medium discarded, and fresh (10% FBS) podocyte medium added to each well. Podocytes were pretreated with Compound A (10 uM to 0.01 nM) for 2 h prior to puromycin animonucleoside (PAN, 30 ug/ml or 15 ug/ml) treatment. Podocytes were then treated with PAN in the presence or absence of Compound A at different concentrations (ranging from 10 uM to 0.01 nM) in 10% FBS medium for 48 h. Podocytes were then fixed with 4% paraformaldehyde in PBS for 30 minutes (adding 50 ul to each well). After discarding the fixative, podocytes were stained with Hoechst 33342 (stock […] working concentration at 5 uM) for 30 min. Podocytes were then washed with PBS three times. Finally, after adding 100 ul of PBS to each well, plate was sealed with a black cover and kept at 4° C. until image analysis. Images of podocyte motility were captured using Acumen eX3 (manufacturer TTP Labtech Ltd. address: Melbourn Science Park, Melbourn, Hertfordshire SG8 6EE, United Kingdom).
Effect of Compound A (“A”) on human podocyte motility was examined using Oris cell migration assay in vitronectin (VN) coated-96-well plate.

human podocytes [3] = assay: Oris cell migration assay, PAN-induced podocyte motility, fibronectin coated plate; assay type: cell-based; conditions: 48 h; for % migrated cells vs control cells: FN plate
Method: as §1
Effect of Compound A (“A”) on human podocyte motility was examined using Oris cell migration assay in fibronectin (FN) coated-96-well plate.

T1 sequence (P06756 31-992 limits assumed): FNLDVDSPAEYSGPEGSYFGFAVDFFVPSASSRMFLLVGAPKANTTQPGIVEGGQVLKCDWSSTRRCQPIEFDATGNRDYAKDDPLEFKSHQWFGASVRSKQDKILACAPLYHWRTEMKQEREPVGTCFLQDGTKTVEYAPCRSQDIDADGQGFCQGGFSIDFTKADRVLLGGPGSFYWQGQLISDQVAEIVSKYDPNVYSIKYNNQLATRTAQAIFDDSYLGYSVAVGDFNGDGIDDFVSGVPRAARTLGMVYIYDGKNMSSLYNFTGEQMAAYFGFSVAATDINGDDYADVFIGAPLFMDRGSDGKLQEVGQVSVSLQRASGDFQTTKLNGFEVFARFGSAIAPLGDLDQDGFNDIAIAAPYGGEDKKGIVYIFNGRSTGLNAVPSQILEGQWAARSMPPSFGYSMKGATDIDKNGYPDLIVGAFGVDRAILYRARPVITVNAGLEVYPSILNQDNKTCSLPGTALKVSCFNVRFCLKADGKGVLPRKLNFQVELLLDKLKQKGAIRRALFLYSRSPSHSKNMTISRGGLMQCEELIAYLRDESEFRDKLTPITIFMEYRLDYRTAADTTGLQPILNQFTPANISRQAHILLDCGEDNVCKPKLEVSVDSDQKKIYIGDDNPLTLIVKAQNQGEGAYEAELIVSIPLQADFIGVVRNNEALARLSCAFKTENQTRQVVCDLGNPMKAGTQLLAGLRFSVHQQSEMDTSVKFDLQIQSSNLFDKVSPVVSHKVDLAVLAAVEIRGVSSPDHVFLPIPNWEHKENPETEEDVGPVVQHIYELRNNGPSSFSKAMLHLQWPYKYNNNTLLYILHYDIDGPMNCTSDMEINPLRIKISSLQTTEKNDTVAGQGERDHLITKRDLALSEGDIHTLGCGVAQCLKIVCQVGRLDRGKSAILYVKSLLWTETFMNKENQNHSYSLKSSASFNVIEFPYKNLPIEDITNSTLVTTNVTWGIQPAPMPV
T1 sequence (P05556 21-728 limits assumed): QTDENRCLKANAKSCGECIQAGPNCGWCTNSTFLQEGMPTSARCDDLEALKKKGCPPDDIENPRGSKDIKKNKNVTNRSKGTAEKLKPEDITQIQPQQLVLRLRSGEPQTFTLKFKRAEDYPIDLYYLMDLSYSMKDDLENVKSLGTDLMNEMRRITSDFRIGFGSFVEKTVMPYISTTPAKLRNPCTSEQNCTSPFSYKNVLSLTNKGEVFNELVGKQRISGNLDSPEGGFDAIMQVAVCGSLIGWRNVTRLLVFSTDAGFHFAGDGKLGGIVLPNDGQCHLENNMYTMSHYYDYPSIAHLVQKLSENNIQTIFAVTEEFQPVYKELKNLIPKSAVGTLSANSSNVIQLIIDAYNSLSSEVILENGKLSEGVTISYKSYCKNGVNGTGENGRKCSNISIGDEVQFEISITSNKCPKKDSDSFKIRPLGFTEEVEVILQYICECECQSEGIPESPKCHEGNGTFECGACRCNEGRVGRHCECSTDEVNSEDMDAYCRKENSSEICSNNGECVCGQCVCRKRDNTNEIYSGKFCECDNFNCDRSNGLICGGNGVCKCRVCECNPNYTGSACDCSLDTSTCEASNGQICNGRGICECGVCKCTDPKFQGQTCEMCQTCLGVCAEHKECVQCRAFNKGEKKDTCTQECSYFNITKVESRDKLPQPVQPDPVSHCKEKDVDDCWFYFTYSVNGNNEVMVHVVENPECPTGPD

- ΔTm at 20 µM ([1]; first of two experiments): 19.4 °C
- ΔTm at 20 µM ([1]; second of two experiments): 15.6 °C
- IC50 (human podocytes [2]; Homo sapiens, vitronectin coated plates, PAN 30 ug/ml, read-out: IC50, inhibition of puromycin-induced human podocyte motility): 9.94 nM
- IC50 (human podocytes [3]; Homo sapiens, fibronectin coated plates, PAN 15 ug/ml, read-out: IC50, inhibition of puromycin-induced human podocyte motility): 1.12 nM
Compound: COc1ccc([C@H](CC(=O)O)N2CCN(CCCc3ccc4c(n3)NCCC4)C2=O)cn1 [Compound A, 3-{2-Oxo-3-[3-(5,6,7,8-tetrahydro-[1,8]naphthyridin-2-yl)-propyl]imidazolidin-1-yl}-3 (S)-(6-methoxy-pyridin-3-yl)-propionic acid]
- % migrated cells vs control cells (human podocytes [2]; PAN 30 ug/ml + A 0.01 nM): 55.1%
- % migrated cells vs control cells (human podocytes [2]; PAN 30 ug/ml + A 0.0316 nM): 44.0%
- % migrated cells vs control cells (human podocytes [2]; PAN 30 ug/ml + A 0.1 nM): 43.0%
- % migrated cells vs control cells (human podocytes [2]; PAN 30 ug/ml + A 0.316 nM): 36.6%
- % migrated cells vs control cells (human podocytes [2]; PAN 30 ug/ml + A 1 nM): 42.1%
- % migrated cells vs control cells (human podocytes [2]; PAN 30 ug/ml + A 3.16 nM): 31.3%
- % migrated cells vs control cells (human podocytes [2]; PAN 30 ug/ml + A 10 nM): 28.6%
- % migrated cells vs control cells (human podocytes [2]; PAN 30 ug/ml + A 100 nM): 19.6%
- % migrated cells vs control cells (human podocytes [2]; PAN 30 ug/ml + A 1 uM): 16.1%
- % migrated cells vs control cells (human podocytes [2]; PAN 30 ug/ml + A 10 uM): 16.9%
- % migrated cells vs control cells (human podocytes [3]; PAN 15 ug/ml + A 0.01 nM): 76.3%
- % migrated cells vs control cells (human podocytes [3]; PAN 15 ug/ml + A 0.0316 nM): 80.3%
- % migrated cells vs control cells (human podocytes [3]; PAN 15 ug/ml + A 0.1 nM): 84.9%
- % migrated cells vs control cells (human podocytes [3]; PAN 15 ug/ml + A 0.316 nM): 83.6%
- % migrated cells vs control cells (human podocytes [3]; PAN 15 ug/ml + A 1 nM): 72.9%
- % migrated cells vs control cells (human podocytes [3]; PAN 15 ug/ml + A 3.16 nM): 64.8%
- % migrated cells vs control cells (human podocytes [3]; PAN 15 ug/ml + A 10 nM): 54.1%
- % migrated cells vs control cells (human podocytes [3]; PAN 15 ug/ml + A 100 nM): 35.8%
- % migrated cells vs control cells (human podocytes [3]; PAN 15 ug/ml + A 1 uM): 36.3%
- % migrated cells vs control cells (human podocytes [3]; PAN 15 ug/ml + A 10 uM): 33.1%
